The target of assay [1] is wild-type Aedes aegypti EcR (AaEcR; GAL4-EcR DEF with VP16-RXR-USP chimera) (Aedes aegypti, UniProt P49880). Briefly: Two-hybrid gene switch assay, luciferase reporter, wild-type AaEcR, mouse NIH3T3 cells. It counts as cell-based. A general note: In a reporter assay the amount or activity of a reporter protein is the signal.
Assay [2] addresses wild-type Drosophila melanogaster EcR (DmEcR; GAL4-EcR DEF with VP16-RXR-USP chimera) (Drosophila melanogaster, UniProt P34021). Put plainly: Two-hybrid gene switch assay, luciferase reporter, wild-type DmEcR, mouse NIH3T3 cells. In kind it is cell-based.
Assay [3] deals with BmEcR (GAL4-EcR DEF with VP16-RXR-USP chimera) (Bombyx mori, UniProt P49881). Put plainly: Two-hybrid gene switch assay, luciferase reporter, BmEcR, mouse NIH3T3 cells. In kind it is cell-based.
Chain of BmEcR (GAL4-EcR DEF with VP16-RXR-USP chimera) (P49881 other isoform, or with tags, fused parts or gaps, change not shown): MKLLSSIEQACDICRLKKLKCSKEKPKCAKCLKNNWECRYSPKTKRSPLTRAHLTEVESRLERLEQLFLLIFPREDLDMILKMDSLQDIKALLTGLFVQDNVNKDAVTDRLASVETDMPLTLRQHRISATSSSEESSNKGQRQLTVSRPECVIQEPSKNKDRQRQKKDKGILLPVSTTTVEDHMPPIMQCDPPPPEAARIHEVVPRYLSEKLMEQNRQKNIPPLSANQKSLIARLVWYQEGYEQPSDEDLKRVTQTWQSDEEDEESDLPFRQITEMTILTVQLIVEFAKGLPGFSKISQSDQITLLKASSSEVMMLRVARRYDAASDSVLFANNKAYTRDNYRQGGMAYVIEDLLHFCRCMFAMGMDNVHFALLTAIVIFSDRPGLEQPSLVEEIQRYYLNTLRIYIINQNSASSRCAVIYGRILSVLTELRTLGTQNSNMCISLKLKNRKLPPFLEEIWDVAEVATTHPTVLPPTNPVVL
Assay [4] addresses T1, MsEcR (GAL4-EcR DEF with VP16-RXR-USP chimera) (Manduca sexta, UniProt P49883).
T1 sequence (P49883 1-556): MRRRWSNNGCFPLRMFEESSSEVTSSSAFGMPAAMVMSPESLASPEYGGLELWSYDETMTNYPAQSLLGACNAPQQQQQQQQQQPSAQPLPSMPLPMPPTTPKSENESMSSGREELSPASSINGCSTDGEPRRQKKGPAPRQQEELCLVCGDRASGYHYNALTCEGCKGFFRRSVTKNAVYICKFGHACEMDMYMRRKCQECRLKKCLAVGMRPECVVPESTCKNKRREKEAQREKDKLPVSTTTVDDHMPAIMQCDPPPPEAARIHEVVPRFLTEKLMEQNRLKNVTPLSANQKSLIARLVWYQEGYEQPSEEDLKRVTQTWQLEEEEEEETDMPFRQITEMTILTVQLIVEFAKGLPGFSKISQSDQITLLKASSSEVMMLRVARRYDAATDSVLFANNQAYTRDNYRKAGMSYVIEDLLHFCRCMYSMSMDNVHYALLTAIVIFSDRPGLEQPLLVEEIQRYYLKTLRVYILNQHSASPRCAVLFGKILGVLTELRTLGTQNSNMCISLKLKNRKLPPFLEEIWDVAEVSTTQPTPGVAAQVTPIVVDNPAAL
T1 sequence (P28702 1-533 partner): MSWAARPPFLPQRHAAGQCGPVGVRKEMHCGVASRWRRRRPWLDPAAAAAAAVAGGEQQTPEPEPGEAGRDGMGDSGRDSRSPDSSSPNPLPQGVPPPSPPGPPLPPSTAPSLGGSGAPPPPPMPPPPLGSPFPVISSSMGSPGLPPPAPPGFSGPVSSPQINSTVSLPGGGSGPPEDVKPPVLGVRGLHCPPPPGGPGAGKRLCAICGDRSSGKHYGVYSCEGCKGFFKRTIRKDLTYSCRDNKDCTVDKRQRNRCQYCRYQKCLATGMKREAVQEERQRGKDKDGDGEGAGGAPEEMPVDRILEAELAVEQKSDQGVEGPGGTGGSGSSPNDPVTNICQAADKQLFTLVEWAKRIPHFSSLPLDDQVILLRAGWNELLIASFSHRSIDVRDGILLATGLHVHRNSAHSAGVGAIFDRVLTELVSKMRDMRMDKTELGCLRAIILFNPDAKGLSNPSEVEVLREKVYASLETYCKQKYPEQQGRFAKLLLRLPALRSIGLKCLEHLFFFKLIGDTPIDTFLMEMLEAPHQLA
Briefly: Two-hybrid gene switch assay, luciferase reporter, MsEcR, mouse NIH3T3 cells.

Assay [5] concerns the target T2, BaEcR (GAL4-EcR DEF with VP16-RXR-USP chimera) (Bemisia tabaci, UniProt A0A6M3RDR8).
T2 sequence (A0A6M3RDR8 115-530): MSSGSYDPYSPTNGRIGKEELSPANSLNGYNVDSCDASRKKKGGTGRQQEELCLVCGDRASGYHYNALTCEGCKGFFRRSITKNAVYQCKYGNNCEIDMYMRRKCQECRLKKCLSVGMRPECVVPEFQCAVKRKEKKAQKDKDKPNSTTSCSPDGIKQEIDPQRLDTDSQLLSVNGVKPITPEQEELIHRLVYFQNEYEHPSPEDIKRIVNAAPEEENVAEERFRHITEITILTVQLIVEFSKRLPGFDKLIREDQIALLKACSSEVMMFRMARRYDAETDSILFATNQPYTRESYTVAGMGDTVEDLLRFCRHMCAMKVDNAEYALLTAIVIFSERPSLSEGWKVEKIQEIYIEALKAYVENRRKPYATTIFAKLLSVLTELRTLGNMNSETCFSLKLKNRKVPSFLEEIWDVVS
T2 sequence (P28702 1-533 partner): T1 sequence (P28702 1-533 partner)
Put plainly: Two-hybrid gene switch assay, luciferase reporter, BaEcR, mouse NIH3T3 cells.

The target in assay [6] is T3, TmEcR (GAL4-EcR DEF with VP16-RXR partner) (Tenebrio molitor, UniProt O02035).
T3 sequence (O02035 194-491): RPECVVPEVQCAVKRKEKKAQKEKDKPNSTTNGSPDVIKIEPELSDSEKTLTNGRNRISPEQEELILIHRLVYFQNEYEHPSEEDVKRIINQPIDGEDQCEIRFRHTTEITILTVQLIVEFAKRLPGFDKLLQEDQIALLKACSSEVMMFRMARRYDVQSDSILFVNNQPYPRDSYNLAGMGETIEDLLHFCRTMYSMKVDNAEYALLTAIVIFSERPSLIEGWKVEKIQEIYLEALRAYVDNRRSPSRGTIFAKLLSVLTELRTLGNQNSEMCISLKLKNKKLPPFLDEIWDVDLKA
T3 sequence (P28704 1-520 partner): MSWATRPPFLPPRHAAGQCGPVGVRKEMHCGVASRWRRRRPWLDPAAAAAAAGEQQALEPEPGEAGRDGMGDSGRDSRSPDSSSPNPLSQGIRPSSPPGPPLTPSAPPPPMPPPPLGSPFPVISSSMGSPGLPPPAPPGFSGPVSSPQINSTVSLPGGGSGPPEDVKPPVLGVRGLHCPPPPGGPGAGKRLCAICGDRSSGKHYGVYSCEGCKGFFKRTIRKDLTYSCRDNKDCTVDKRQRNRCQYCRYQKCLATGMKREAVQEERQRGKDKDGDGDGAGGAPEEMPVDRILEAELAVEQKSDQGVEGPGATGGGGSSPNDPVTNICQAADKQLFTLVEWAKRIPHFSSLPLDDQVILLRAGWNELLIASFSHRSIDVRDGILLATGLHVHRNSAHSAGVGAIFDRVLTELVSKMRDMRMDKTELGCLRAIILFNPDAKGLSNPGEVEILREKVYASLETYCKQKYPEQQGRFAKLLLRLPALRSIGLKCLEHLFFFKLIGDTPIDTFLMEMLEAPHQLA
Put plainly: Two-hybrid gene switch assay, luciferase reporter, TmEcR, mouse NIH3T3 cells.

In assay [7] the target is T4, AmaEcR (GAL4-EcR DEF with VP16-RXR-USP chimera) (Amblyomma americanum, UniProt O44338).
T4 sequence (O44338 255-570): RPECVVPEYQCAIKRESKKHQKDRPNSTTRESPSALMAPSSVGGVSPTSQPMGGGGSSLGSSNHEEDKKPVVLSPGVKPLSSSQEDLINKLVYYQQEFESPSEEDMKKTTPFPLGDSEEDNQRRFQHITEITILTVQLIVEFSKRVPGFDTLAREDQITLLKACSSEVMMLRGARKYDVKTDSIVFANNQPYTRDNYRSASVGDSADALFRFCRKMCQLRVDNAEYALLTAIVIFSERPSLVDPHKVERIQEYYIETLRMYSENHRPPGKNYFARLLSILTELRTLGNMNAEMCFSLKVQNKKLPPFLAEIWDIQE
T4 sequence (P28702 1-533 partner): T1 sequence (P28702 1-533 partner)
Briefly: Two-hybrid gene switch assay, luciferase reporter, AmaEcR, mouse NIH3T3 cells.

Assay [8] has as its target T5, wild-type CfEcR (GAL4-CfEcR-DEF with VP16-RXR-USP chimera) (Choristoneura fumiferana, UniProt O77255).
T5 sequence (O77255 219-541): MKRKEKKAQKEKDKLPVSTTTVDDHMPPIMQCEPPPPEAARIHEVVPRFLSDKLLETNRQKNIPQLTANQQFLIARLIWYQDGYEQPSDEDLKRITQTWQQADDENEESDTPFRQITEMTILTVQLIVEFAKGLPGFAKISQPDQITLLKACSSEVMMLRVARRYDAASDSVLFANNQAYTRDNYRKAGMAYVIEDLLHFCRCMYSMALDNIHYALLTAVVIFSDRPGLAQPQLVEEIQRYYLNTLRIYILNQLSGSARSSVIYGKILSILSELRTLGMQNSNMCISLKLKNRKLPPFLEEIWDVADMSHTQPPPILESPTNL
T5 sequence (P28702 1-533 partner): T1 sequence (P28702 1-533 partner)
Put plainly: Two-hybrid gene switch assay, luciferase reporter, wild-type CfEcR, mouse NIH3T3 cells.

Assay [9] concerns NcEcR (GAL4-EcR DEF with VP16-RXR partner). Put plainly: Two-hybrid gene switch assay, luciferase reporter, NcEcR, mouse NIH3T3 cells.
Where [10] appears, read: FIG. 14A/14B, GAL4-EcR(DEF) with VP16-RXR-USP chimera, read-out: EC50.
Setting [11] is: EC50, FIG. 14A/14B, GAL4-EcR(DEF) with VP16-RXR-USP chimera.
Where [12] appears, read: EC50, FIG. 13A/13B, GAL4-EcR(DEF) with VP16-RXR-USP chimera.
Where [13] appears, read: EC50, FIG. 14A/14B, GAL4-EcR(DEF).
Setting [14] is: EC50, FIG. 16, GAL4-EcR (DEF) / VP16-RXR-USP chimera.
Setting [15] is: EC50, FIG. 15, GAL4-EcR (DEF) / VP16-RXR-USP chimera.
[16] abbreviates: FIG. 16, GAL4-EcR (DEF) / VP16-RXR-USP chimera, read-out: EC50.

Where two headings read alike, the source gives them in different places.

Chain of wild-type Drosophila melanogaster EcR (DmEcR; GAL4-EcR DEF with VP16-RXR-USP chimera) (P34021 with tags, fused parts or gaps limits assumed): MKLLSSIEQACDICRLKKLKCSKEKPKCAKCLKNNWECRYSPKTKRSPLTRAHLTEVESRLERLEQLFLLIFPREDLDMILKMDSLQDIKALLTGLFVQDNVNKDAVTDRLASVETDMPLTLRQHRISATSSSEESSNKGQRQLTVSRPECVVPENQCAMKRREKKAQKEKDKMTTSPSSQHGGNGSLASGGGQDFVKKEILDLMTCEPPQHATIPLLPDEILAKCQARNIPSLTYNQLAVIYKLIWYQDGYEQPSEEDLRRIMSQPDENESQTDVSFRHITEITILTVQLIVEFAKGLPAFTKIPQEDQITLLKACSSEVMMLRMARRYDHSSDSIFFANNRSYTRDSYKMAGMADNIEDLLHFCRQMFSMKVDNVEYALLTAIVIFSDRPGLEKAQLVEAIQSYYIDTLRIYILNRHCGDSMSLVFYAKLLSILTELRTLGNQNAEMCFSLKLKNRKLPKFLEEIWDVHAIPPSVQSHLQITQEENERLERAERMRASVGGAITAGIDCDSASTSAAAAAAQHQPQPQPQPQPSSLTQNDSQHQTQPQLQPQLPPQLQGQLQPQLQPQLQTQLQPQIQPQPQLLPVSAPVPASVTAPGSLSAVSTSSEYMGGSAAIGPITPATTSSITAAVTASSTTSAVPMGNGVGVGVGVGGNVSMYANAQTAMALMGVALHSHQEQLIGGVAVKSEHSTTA
Chain of wild-type Aedes aegypti EcR (AaEcR; GAL4-EcR DEF with VP16-RXR-USP chimera) (P49880 with tags, fused parts or gaps limits assumed, change not shown): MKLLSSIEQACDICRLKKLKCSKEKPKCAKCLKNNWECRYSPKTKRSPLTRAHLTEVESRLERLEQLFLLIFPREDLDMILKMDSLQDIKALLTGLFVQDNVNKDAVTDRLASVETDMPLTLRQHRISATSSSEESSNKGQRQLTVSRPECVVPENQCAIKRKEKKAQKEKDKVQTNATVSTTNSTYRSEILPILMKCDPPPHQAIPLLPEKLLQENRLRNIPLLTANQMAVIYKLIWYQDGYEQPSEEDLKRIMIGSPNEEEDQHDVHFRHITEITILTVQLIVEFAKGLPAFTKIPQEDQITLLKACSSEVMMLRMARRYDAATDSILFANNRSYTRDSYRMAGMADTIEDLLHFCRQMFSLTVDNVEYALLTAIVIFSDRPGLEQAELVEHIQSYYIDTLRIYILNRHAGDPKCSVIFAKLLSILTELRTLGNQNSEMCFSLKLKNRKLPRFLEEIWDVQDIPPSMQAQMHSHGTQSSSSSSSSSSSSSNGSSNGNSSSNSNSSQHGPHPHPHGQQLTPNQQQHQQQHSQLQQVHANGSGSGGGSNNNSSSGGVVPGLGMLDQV

For the molecule `CC(C)(O)CCC(O)C(C)(O)C1CCC2(O)C3=CC(=O)C4CC(O)CCC4(C)C3CCC12C` (stereo not shown) [Compound 2-deoxy-20-hydroxyecdysone], the EC50 in [1] (setting [10]) was ~5 µM; in assay [2] (setting [11]), > 33 µM; in assay [3] (read-out: EC50) it was > 33 µM; in assay [4] (setting [12]) it was ~10 µM; in assay [5] (setting [11]) it was ~15 µM; in [6] (setting [13]), ~20 µM. The EC50 in assay [7] (setting [11]) was ~5 µM; in [8], > 33 µM.
For the molecule `C=C(C)CC[C@@H](O)[C@](C)(O)[C@H]1CC[C@@]2(O)C3=CC(=O)[C@@H]4C[C@@H](O)[C@@H](O)C[C@]4(C)[C@H]3CC[C@]12C` [listing 1 of 2 here], the EC50 in assay [1] (setting [11]) came to 0.024 µM; in assay [2] (setting [11]) it was 0.912 µM; in assay [5] (setting [11]) it was 0.382 µM; in assay [9] (FIG. 14A/14B, GAL4-EcR(DEF)), 0.006 µM; in [6] (setting [13]), 1.4 µM.
Turning to `CC(C)CC[C@@H](O)[C@](C)(O)[C@H]1CC[C@@]2(O)C3=CC(=O)[C@]4(O)C[C@@H](O)[C@@H](O)C[C@]4(C)[C@H]3[C@H](O)C[C@]12C` [Mur A, muristerone A, reference compound], the EC50 is 0.023 µM in assay [1] (setting [11]); 0.112 µM in assay [2] (EC50, FIG. 4C); 0.058 µM in assay [2] (setting [11]); 2.98 µM in assay [3] (EC50, FIG. 13A/13B, BmEcR, GAL4-EcR(DEF) with VP16-RXR-USP chimera); 0.66 µM in [4] (setting [12]); 0.829 µM in [5] (setting [11]). Moreover, the EC50 in assay [6] (setting [13]) is ~5 µM; in [7] (setting [11]), 0.128 µM.
`CC(C)CC[C@@H](O)[C@](C)(O)[C@H]1CC[C@@]2(O)C3=CC(=O)[C@@H]4C[C@@H](O)[C@@H](O)C[C@]4(C)[C@H]3CC[C@]12C` [PoA, ponasterone A, reference compound]: the EC50 in [2] (EC50, FIG. 4C) stood at 0.113 µM; in assay [2] (setting [14]), 0.84 µM; in [4] (setting [15]) it was 0.17 µM; in [5] (setting [11]), 0.031 µM; in [6] (setting [13]), 0.044 µM; in assay [6] (EC50, FIG. 16, GAL4-EcR (DEF)) it was 0.07 µM. The midpoint of the response in assay [8], the EC50, lay at 8.42 µM.
Take `CC(C)(O)CC[C@H]1OC(C)(C)O[C@]1(C)[C@H]1CC[C@@]2(O)C3=CC(=O)[C@@H]4C[C@@H](O)[C@@H](O)C[C@]4(C)[C@H]3CC[C@]12C` [20-hydroxyecdysone-20,22-acetonide]: the EC50 in assay [1] (setting [10]) was ~12 µM; in [1] (setting [16]), 2.38 µM; in assay [2] (setting [11]) it was > 33 µM; in assay [2] (setting [14]) it was ~12 µM; in [4] (setting [12]) it was ~12 µM; in [4] (setting [15]) it was ~12 µM. The EC50 is > 33 µM in assay [5] (setting [11]); 8.57 µM in assay [5] (setting [14]); ~10 µM in [9] (FIG. 14A/14B, GAL4-EcR(DEF)); > 33 µM in assay [6] (setting [13]); ~3 µM in assay [6] (EC50, FIG. 16, GAL4-EcR (DEF)); ~20 µM in [7] (setting [11]). Further, the EC50 in assay [7] (setting [14]) is ~1 µM.
With `C=C(C)CC[C@@H](O)[C@](C)(O)[C@H]1CC[C@@]2(O)C3=CC(=O)[C@@H]4C[C@@H](O)[C@@H](O)C[C@]4(C)[C@H]3CC[C@]12C` [listing 2 of 2 here], the results for the 50% effective concentration (EC50) in assay [3] (read-out: EC50), in [4] (setting [12]) and in assay [8] were 6.28 µM, 0.608 µM and ~12 µM, respectively.
In the case of `CC(C)(O)CC[C@@H](O)[C@](C)(O)[C@H]1CC[C@@]2(O)C3=CC(=O)[C@@H]4C[C@@H](O)[C@@H](O)C[C@]4(C)[C@H]3CC[C@]12C` [Compound 20-hydroxyecdysone], the EC50 was 4.38 µM in assay [1] (setting [16]); ~15 µM in [2] (setting [16]); ~5 µM in assay [5] (setting [11]); 5.35 µM in assay [5] (setting [14]); ~0.8 µM in assay [9] (FIG. 14A/14B, GAL4-EcR(DEF)); 0.6 µM in assay [9] (FIG. 16, GAL4-EcR (DEF)). For the same molecule, the EC50 in assay [6] (setting [13]) was ~15 µM; in [7] (setting [14]), ~0.8 µM.

One may read the EC50 as the concentration at which the effect is half-maximal.
